In patent publication US10604514B2, “6-(5-membered heteroaryl)isoquinolin-3-yl carboxamides and preparation and use thereof” (Samumed, LLC, priority 2017, dated 2020):
Where two headings read alike, the source gives them in different places.

What was measured:
[1] = system: SW480 colon carcinoma cells; assay: Cell viability assay (CellTiter-Glo) in SW480 cells; format: cell-based, human;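 further: SW480 cells stably carrying an Sp5-luciferase TCF/LEF reporter, luminescent ATP signal as viability measure, DMSO-treated cells as control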
IL-6 = IL-6 inhibition in LPS-stimulated human peripheral blood mononuclear cells (HTRF); format: cell-based; conditions: Homo sapiens, PBMC; for EC50: IL-6, LPS-stimulated huPBMCs, HTRF; for inhibition at 10 µM: read-out: percent value in parentheses below EC50 >10
Method in brief: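 Fresh human PBMCs (5000 cells/well, 1% FBS RPMI) preincubated with compound (10-point 1:3 series from 10 μM, 0.25% DMSO) 2 h at 37 °C, then stimulated with 50 ng/mL E. coli LPS for 22 h. IL-6 by HTRF 665/620 ratio; DMSO-normalized, EC50 from 4-parameter fit.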

[2] = system: LL29 cells (primary human fibroblasts derived from IPF patients), α-smooth muscle actin; assay: Inhibition of fibrotic process: αSMA in TGF-β1-treated primary human fibroblasts from IPF patients (LL29 cells); format: cell-based; conditions: Homo sapiens, Fibroblast; for EC50: 96 h, % αSMA-positive LL29 cells, TGF-β1 20 ng/mL, 4 days; for inhibition at 10 µM: read-out: percent inhibition at 10 μM
Method in brief: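 IPF-patient lung fibroblasts (LL29) were stimulated with TGF-β1 (20 ng/mL) in 1% FBS medium with compound (11-point 1:2 series, 0.1% DMSO) for 4 days at 37 °C. Fixed cells were immunostained for αSMA and imaged, excluding SYTOX-positive dead cells. The % αSMA-positive cells was normalized to TGF-β1/DMSO control wells.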

GSK3β kinase = GSK3β kinase (Homo sapiens (Human), UniProt P49841); assay: GSK3β kinase assay (Ser/Thr 09 peptide Z-lyte, FRET); format: biochemical; conditions: method text calls the value IC50;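 further: Coumarin/fluorescein emission ratio converted to percent phosphorylation against unphosphorylated (0%) and phosphorylated (100%) controls, 1 h compound incubation at room temperature, 11-point threefold dilutions from 10 µM, run in duplicate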
[3] = system: Tau phosphorylation at Ser396 (pSer396), SH-SY5Y cells; assay: Tau phosphorylation at Ser396 (pSer396) in SH-SY5Y cells, ELISA/western blot; format: cell-based, human; conditions: Homo sapiens;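 further: cell lysates probed for reduced Tau pSer396 via ELISA (colorimetric) or western blot (chemiluminescence), both with one shared pSer396 antibody, EC50 for lowering phosphorylation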
Description: Two days before treatment, cells were seeded onto 96 well plates at 5×10^4 cells/well.
Wells were visually checked for cell death or change in morphology and supernatants were tested for cytotoxicity by measurement of lactate dehydrogenase release (LDH, CytoToxOne kit, Promega) if necessary.
Cells were lysed with RIPA buffer complemented with phosphatase and protease inhibitors then lysates were spun down at 12,000 g for 10 min to remove any cellular debris. Lysates are then either directly tested for pSer396 by ELISA (Life Technology, Kit KHB7031) or loaded on NuPage Bis-Tris gels for western blot analysis. Colorimetric detection of ELISA signal is performed by Cytation3 plate reader (Biotek) and the chemiluminescence signal for HRP-linked antibodies used in western blotting is detected using a Carestream Image Station. The same pSer396 antibody is used for detection of pTau in both assays.

[4] = system: Wnt activity (Sp5-Luc reporter in SW480 colon carcinoma cells); assay: Wnt activity screening assay (Sp5-Luc reporter gene assay); format: cell-based, human
Method in brief: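 SW480 cells stably carrying an Sp5 promoter (eight TCF/LEF sites)-firefly luciferase reporter were plated in DMEM with 1% FBS and treated with a 10-point, 1:3 dilution series from 10 μM (0.1% DMSO) for 36 to 48 h at 37° C. Luminescence was normalized to DMSO controls, and EC50 came from four-parameter nonlinear regression.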

DYRK1A kinase = DYRK1A kinase (Homo sapiens (Human), UniProt Q13627); assay: DYRK1A kinase assay (Ser/Thr 18 peptide Z-lyte, FRET)
[5] = Homo sapiens, 96 h; cell viability, SW480 cells, four days, CellTiter-Glo
[6] = SH-SY5Y cells, overnight (16-18 h), read-out: pSer396 Tau EC50
[7] = Homo sapiens; Sp5-Luc reporter, SW480 cells, 36 to 48 hours
[8] = DYRK1A kinase, method text calls the value IC50
[9] = Homo sapiens, SW480; read-out: percent inhibition at 10 μM
[10] = Homo sapiens, SW480, read-out: percent inhibition at 10 μM

Chain of GSK3β kinase (P49841 whole entry): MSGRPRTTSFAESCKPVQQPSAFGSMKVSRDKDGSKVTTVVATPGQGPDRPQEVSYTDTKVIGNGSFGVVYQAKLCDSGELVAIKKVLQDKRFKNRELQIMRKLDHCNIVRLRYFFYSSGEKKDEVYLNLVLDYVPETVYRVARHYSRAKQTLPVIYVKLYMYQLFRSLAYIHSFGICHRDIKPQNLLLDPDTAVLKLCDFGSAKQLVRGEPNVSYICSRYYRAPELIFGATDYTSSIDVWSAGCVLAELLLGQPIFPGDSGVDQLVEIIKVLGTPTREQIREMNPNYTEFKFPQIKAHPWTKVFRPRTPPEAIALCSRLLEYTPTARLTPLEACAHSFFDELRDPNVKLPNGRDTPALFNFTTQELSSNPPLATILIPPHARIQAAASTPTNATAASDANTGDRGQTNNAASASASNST

| Compound | EC50 [1, 5] [nM] | EC50 (IL-6) [nM] | EC50 [2] [nM] | EC50 (GSK3β kinase) [nM] | EC50 [3, 6] [µM] | EC50 [4, 7] [nM] | EC50 (DYRK1A kinase; [8]) [nM] | inhibition at 10 µM [1, 9] [%] | inhibition at 10 µM [4, 9] [%] | inhibition at 10 µM (IL-6) [%] | inhibition at 10 µM [2] [%] | inhibition at 10 µM [1, 10] [%] | EC50 ([3]; SH-SY5Y, read-out: pSer396 Tau EC50 (μM)) [µM] | inhibition at 10 µM [4, 10] [%] | EC50 (DYRK1A kinase) [nM] |
| --- | --- | --- | --- | --- | --- | --- | --- | --- | --- | --- | --- | --- | --- | --- | --- |
| Cn1cc(-c2cc(F)c3cnc(NC(=O)[C@H]4CC[C@H](NCC(F)F)CC4)cc3c2)cn1 [Compound 103, trans-4-((2,2-Difluoroethyl)amino)-N-(8-fluoro-6-(1-methyl-1H-pyrazol-4-yl)isoquinolin-3-yl)cyclohexane-1-carboxamide] | 6080 | 1080 | 392 | 30 | 1.3 | 2970 | 5 |  |  |  |  |  |  |  |  |
| Cc1ncc(-c2ccc3cnc(NC(=O)[C@H]4CC[C@H](NCC(F)F)CC4)cc3c2)o1 [Compound 104, trans-4-((2,2-Difluoroethyl)amino)-N-(6-(2-methyloxazol-5-yl)isoquinolin-3-yl)cyclohexane-1-carboxamide] | 4590 | 1140 | 220 | 149 | 0.712 | 3600 | 8 |  |  |  |  |  |  |  |  |
| COCCN[C@H]1CC[C@H](C(=O)Nc2cc3cc(-c4cnn(C)c4)cc(F)c3cn2)CC1 [Compound 105, trans-N-(8-Fluoro-6-(1-methyl-1H-pyrazol-4-yl)isoquinolin-3-yl)-4-((2-methoxyethyl)amino)cyclohexane-1-carboxamide] | > 10000 | 1570 | 812 | 550 | 2.2 | > 10000 | 34 | 16.9 | 15.8 |  |  |  |  |  |  |
| Cc1nnc(-c2ccc3cnc(NC(=O)N4CCN(C)[C@H](C)C4)cc3c2)s1 [Compound 109, (R)-3,4-Dimethyl-N-(6-(5-methyl-1,3,4-thiadiazol-2-yl)isoquinolin-3-yl) piperazine-1-carboxamide] | 4130 | > 10000 | > 10000 | 175 | 3.1 | 7810 | 10 |  |  | 6.9 | 19.5 |  |  |  |  |
| Cc1nnc(-c2ccc3cnc(NC(=O)N4CC5CCC(C4)N5C)cc3c2)s1 [Compound 110, 8-Methyl-N-(6-(5-methyl-1,3,4-thiadiazol-2-yl)isoquinolin-3-yl)-3,8-diazabicyclo[3.2.1]octane-3-carboxamide] | > 10000 | > 10000 | 1970 | 314 |  | > 10000 | 17 |  |  | 7 |  | 1.5 | 2.1 | 24.5 |  |
| Cc1nnc(-c2ccc3cnc(NC(=O)N4CCC(NC(CF)CF)CC4)cc3c2)s1 [Compound 121, 4-((1,3-Difluoropropan-2-yl)amino)-N-(6-(5-methyl-1,3,4-thiadiazol-2-yl)isoquinolin-3-yl)piperidine-1-carboxamide] | > 10000 | > 10000 | > 10000 | 82 | 0.953 | 8130 | 35 | 36.5 |  | 5.4 | 10.4 |  |  |  |  |
| Cc1ncc(-c2ccc3cnc(NC(=O)[C@H]4CC[C@H](NC(CF)CF)CC4)cc3c2)o1 [Compound 124, trans-4-((1,3-difluoropropan-2-yl)amino)-N-(6-(2-methyloxazol-5-yl)isoquinolin-3-yl)cyclohexane-1-carboxamide] | 1020 | 1880 | 451 | 217 | 0.612 | 3480 | 35 |  |  |  |  |  |  |  |  |
| Cc1nnc(-c2ccc3cnc(NC(=O)N4CCn5ccnc5C4)cc3c2)s1 [Compound 125, N-(6-(5-Methyl-1,3,4-thiadiazol-2-yl)isoquinolin-3-yl)-5,6-dihydroimidazo [1,2-a]pyrazine-7(8H)-carboxamide] | 1660 | 9270 | 442 | 5 | 0.114 | 1240 | 4 |  |  |  |  |  |  |  |  |
| Cc1ncc(-c2ccc3cnc(NC(=O)N4CCn5ccnc5C4)cc3c2)o1 [Compound 126, N-(6-(2-Methyloxazol-5-yl)isoquinolin-3-yl)-5,6-dihydroimidazo[1,2-a]pyrazine-7(8H)-carboxamide] | 488 | 363 | 286 | 24 | 0.197 | 1180 | 5 |  |  |  |  |  |  |  |  |
| Cc1nnc(-c2ccc3cnc(NC(=O)N4CCC(N5CCOCC5)CC4)cc3c2)s1 [Compound 128, N-(6-(5-Methyl-1,3,4-thiadiazol-2-yl)isoquinolin-3-yl)-4-morpholinopiperidine-1-carboxamide] | 4370 | > 10000 | 6630 | 25 | 0.491 | 3180 | 16 |  |  | 8 |  |  |  |  |  |
| Cc1nnc(-c2ccc3cnc(NC(=O)N4CCC(N5CCN(C)CC5)CC4)cc3c2)s1 [Compound 129, N-(6-(5-methyl-1,3,4-thiadiazol-2-yl)isoquinolin-3-yl)-4-(4-methylpiperazin-1-yl)piperidine-1-carboxamide] | 3620 | > 10000 | 1990 | 90 | 0.656 | 1810 | 18 |  |  | 4.5 |  |  |  |  |  |
| Cc1nnc(-c2ccc3cnc(NC(=O)N4CC[C@@H](NC(C)C)[C@H](F)C4)cc3c2)s1 [Compound 130, (3R,4R)-3-Fluoro-4-(isopropylamino)-N-(6-(5-methyl-1,3,4-thiadiazol-2-yl)isoquinolin-3-yl)piperidine-1-carboxamide] | 4210 | > 10000 | 3300 | 142 | 1.5 | 4040 | 37 |  |  | 12.2 |  |  |  |  |  |
| Cc1nnc(-c2ccc3cnc(NC(=O)N4CC[C@@H](N)[C@H](F)C4)cc3c2)s1 [Compound 131, (3R,4R)-4-Amino-3-fluoro-N-(6-(5-methyl-1,3,4-thiadiazol-2-yl)isoquinolin-3-yl)piperidine-1-carboxamide] | > 10000 | 1930 | 1930 | 6 | 0.337 | 3920 | 13 | 35.9 |  |  |  |  |  |  |  |
| [2H]c1c(NC(=O)C2CCN(C)CC2)ncc2ccc(-c3nnc(C)s3)cc12 [Compound 134, 1-Methyl-N-(6-(5-methyl-1,3,4-thiadiazol-2-yl)isoquinolin-3-yl-4-d) piperidine-4-carboxamide] | 2740 | 7130 | 579 | 19 | 0.093 | 593 |  |  |  |  |  |  |  |  | 6 |
| [2H]c1c(NC(=O)CN2CCOCC2)ncc2ccc(-c3nnc(C)s3)cc12 [Compound 135, N-(6-(5-Methyl-1,3,4-thiadiazol-2-yl)isoquinolin-3-yl-4-d)-2-morpholinoacetamide] | > 10000 | > 10000 | 2140 | 22 | 0.365 | 5690 |  | 27.8 |  | 0 |  |  |  |  | 41 |
| [2H]c1c(NC(=O)C2CCN(C)CC2)ncc2ccc(-c3cnc(C)o3)cc12 [Compound 136, 1-Methyl-N-(6-(2-methyloxazol-5-yl)isoquinolin-3-yl-4-d)piperidine-4-carboxamide] | 1120 | 463 | 418 | 80 | 0.309 | 2110 |  |  |  |  |  |  |  |  | 6 |
| [2H]c1c(NC(=O)CN2CCOCC2)ncc2ccc(-c3cnc(C)o3)cc12 [Compound 137, N-(6-(2-Methyloxazol-5-yl)isoquinolin-3-yl-4-d)-2-morpholinoacetamide] | > 10000 | 2280 | 3130 | 68 | 0.573 | > 10000 |  | 39 | 38.5 |  |  |  |  |  | 18 |
